Experimental data from US20230220047A1, “PEPTIDES FOR TREATMENT OF SEPSIS AND CANCER” (NORWEGIAN UNIVERSITY OF SCIENCE AND TECHNOLOGY (NTNU), priority 2020, published 2023).
Entries after “also recorded” stand apart in the source; their conditions may differ.

What was measured:
[1] = tested on: RPMI 8226 multiple myeloma cells; test: CellTiter-Glo cell viability assay, RPMI 8226; type: cell-based, human; details: RPMI 8226, 10 μM, 48 h
Protocol: Minor effects on the proliferation of the IH-1 and RPMI 8226 cell lines are seen. Cells were seeded at the level shown (left-hand bar of each set) then incubated in medium containing water, 10 μM penetratin or 10 μM P7-A4-Pen for 48 hr (except for INA-6 cells, which were incubated with 12.5 μM penetratin or 12.5 μM P7-A4-Pen). The number of viable cells was detected based on quantitation of ATP by luminescent signal in correlation to a standard curve prepared for each cell line. Results are based on 3-5 biological replicates for each condition, error bars show standard deviation of mean.
Multiple myeloma cells JJN-3 (DSMZ (Germany) no. ACC 541), ANBL-6 (Cellosaurus accession number CVCL_5425, obtained from Dr Diane Jelinek, Mayo Clinic, Rochester, Minn.), INA-6 (Cellosaurus accession number CVCL_5209, obtained from Dr M. Gramatzki, University of Erlangen-Nurnberg, Erlangen, Germany), RPMI-8226 (ATCC CCL-155), and IH-1 (Cellosaurus accession number CVCL_WZ44, established from the pleural effusion of a myeloma patient by Myeloma research group, IKOM, NTNU, Trondheim, Norway) were grown in RPMI-1640 (Sigma-Aldrich Norway, Oslo, Norway) supplemented with 100 nM penicillin/streptomycin and 10% FCS, and for ANBL-6, IH-1 and INA-6 cells 2 ng/ml recombinant IL-6 (Gibco, Thermo Fisher Scientific, Waltham, Mass., USA). […]

[2] = tested on: human IL-1 receptor; test: HEK-Blue IL-1R cells stimulated with human recombinant IL-1β; type: cell-based
Description: TLR2 and 4, and the endosomal TLRs 7-9, use the Myddosome signaling complex to activate transcription of pro-inflammatory cytokines, and endosomal TLRs also activate expression of type I IFNs via the same signaling complex. There are also several IL-1-like receptors including the IL-1 receptor (IL-1R) itself, which is characterized by extracellular immunoglobulin-like domains and intracellular Toll/Interleukin-1R (TIR) domains. These receptors also use the Myddosome complex to initiate downstream signaling. Therefore, we decided to test if signaling downstream of human IL-1R could be altered by the P7-Pen peptide. We used HEK-Blu IL-1R cells (Invivogen) that endogenously express the human IL-1 receptor. HEK-Blue IL-1R cells express a SEAP reporter gene under the control of the IFNβ minimal promoter fused to five NF-κB and five AP-1 binding sites. Binding of IL-1β to its receptor IL-1R on the surface of HEK-Blue IL-1R cells triggers a signaling cascade leading to the activation NF-κB and the subsequent production of SEAP.
In the assay, HEK-Blue IL-1R cells were pre-treated with control peptide or P7-Pen and stimulated with human recombinant II-1β (hII-1β) for up to 3 hr or for 24 hr. Stimulation of cells by TLR2 and 4 as well as by IL-1β would result in fast posttranslational modifications of IRAK1 in the Myddosome, and in phosphorylation of p38 MAPK. […]

[3] = molecular target: T1, Mal interaction with MyD88 and IRAK1 (Homo sapiens, UniProt P58753); test: Anti-Mal immunoprecipitation from LPS-stimulated primary human macrophages; type: cell-based; details: 15 μM, 30 min pre-treatment, LPS 30 min or 1 h
T1 construct: endogenous in cells; host or cells: primary human macrophages, LPS-stimulated
Protocol: (A) Mal^Flag was overexpressed in HEK293T cells. […] Lysis buffer contained 300 mM NaCl and 1% Triton X100. (B) Mal^Flag and SLAMF1 wt or deletion mutants (Δ20 or Δ67 C-terminal amino acids) were co-expressed in HEK293T cells followed by immunoprecipitations with anti-Flag beads and Western blot analysis. (C) Primary human macrophages were pre-treated with 15 μM peptides for 30 min, stimulated with LPS for another 30 min or 1 h, lysed and used for IPs. Precipitations were performed using goat anti-Mal polyclonal antibodies covalently bound to magnetic beads, followed by Western blot analysis. Proteins in lysates were analysed for input control (A-C).

T1 sequence (P58753 whole entry): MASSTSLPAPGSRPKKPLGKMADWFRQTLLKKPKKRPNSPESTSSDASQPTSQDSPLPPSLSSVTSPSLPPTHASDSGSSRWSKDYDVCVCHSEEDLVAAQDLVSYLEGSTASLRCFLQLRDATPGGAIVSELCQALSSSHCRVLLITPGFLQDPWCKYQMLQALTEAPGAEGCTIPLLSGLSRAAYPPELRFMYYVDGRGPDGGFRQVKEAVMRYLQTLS

Row | Substance | cell proliferation [1] | IL-1β-induced IRAK1 posttranslational modifications or p-p38 MAPK levels ([2]; data not shown) | IL-1β-mediated secretion of SEAP ([2]; versus cells pre-treated with control peptide Pen (data not shown)) | Mal recruitment to the MyD88 complex and IRAK1 [3]
1 | Ac-ITVAASVTLTGRQIKIWFQNRRMKWKK-NH2 [Peptide P7-A4-Pen] | Minor effects; also recorded: inhibited cell proliferation |  |  | 
2 | Ac-ITVYASVTLTGRQIKIWFQNRRMKWKK-NH2 [Peptide P7-Pen] |  | no effect | comparable | totally abrogated; also recorded: disruption
